The OPERA property sets (Mansouri et al. 2018)

Clc1ccc(Cl)c(-c2ccccc2)c1Cl
logP: 5.67

O=NN(CCCl)C(=O)NC(CCC(=O)O)C(=O)O (centres undefined)
logP: 0.6

C=C(Br)CC1(C(C)CC)C(=O)NC(=O)N(C)C1=O (centres undefined)
logP: 2.43

O=C1OC(C2CCCCC2)c2ccccc21 (centres undefined)
logP: 3.34

CNC(=S)NCCSCc1nc[nH]c1C
logP: 0.5

O=[N+]([O-])c1cc[n+]([O-])c2c([N+](=O)[O-])cccc12
logP: 0.76

CSc1nnc(C2CCCCC2)c(=O)n1N
logP: 2.14

CSc1nc2ccc(Cl)cc2[nH]1
logP: 3.22

CC1(C)CCCC(C)(C)N1N=O
logP: 2.49

CN1C(=O)CN=C(c2ccccc2)c2cc(N)ccc21
logP: 1.46

CCCCO[N+](=O)[O-]
logP: 2.15

Nc1ccc(OC(=O)CNC(=O)c2ccccc2)cc1
logP: 1.01

Cn1nnc2ccccc21
logP: 1.13

COC(=O)C(C#N)=NNc1cc(C#N)ccc1C#N
logP: 2.81

O=[N+]([O-])C=Cc1ccccc1Cl
logP: 2.85

CC(C)(C)c1cccc(OC2OC(CO)C(O)C(O)C2O)c1 (centres undefined)
logP: 1.01

CN(C)c1cnnc(N(C)C)c1
logP: 0.84

CC(=O)Oc1ccc(C=CNC=O)cc1
logP: 1.32

COc1ccc(CN(C)N=Nc2ccc(C(=O)O)cc2)cc1
logP: 4.43

CCc1ccc2c(c1)N=C(C)NS2(=O)=O
logP: 1.25

CC(C)Oc1cn[nH]c1
logP: 1.13

CCCCOc1cc(Cc2cnc(N)nc2N)c(C)cc1OC
logP: 2.78

CCCCc1ccc2nc(C(F)(F)F)[nH]c2c1
logP: 4.27

CCCCC1OC(=O)c2cc(N)ccc21 (centres undefined)
logP: 2.86

CCCCCC1(CC)C(=O)NC(=O)N(C)C1=O (centres undefined)
logP: 2.45

CCc1cnc(C=Cc2ccc([N+](=O)[O-])o2)nc1
logP: 1.55

CC1N=C(c2ccccc2Cl)c2cc(Cl)ccc2N(C)C1=O (centres undefined)
logP: 3.4

NNC(=O)NCc1ccccc1
logP: -0.22

FC1C(Cl)C(Cl)C(Cl)C(Cl)C1Cl (centres undefined)
logP: 3.19

CCCCCCCCCCCCCC[n+]1ccccc1C.[I-]
logP: 2.27

Cc1cc(C)nc(-n2c(C)cc(=O)n2C)n1
logP: 0.51

COc1cccc(C2=NCC(=O)Nc3ccc(Cl)cc32)c1
logP: 3.14

CCSCC1=Nc2cc(Cl)ccc2S(=O)(=O)N1
logP: 2.26

CNc1ccc(C(=O)OCCN(C)C)cc1
logP: 1.95

CSc1ccc2c(c1)C(c1ccccc1)=NCC(=O)N2
logP: 2.92

COC1(C(F)(F)F)C(Cl)C(Cl)C(Cl)C(Cl)C1Cl (centres undefined)
logP: 4.06

CCN1C(=O)SC(=Cc2ccc([N+](=O)[O-])o2)C1=O
logP: 2.29

CNP(=O)(OC)Oc1ccc([N+](=O)[O-])cc1 (centres undefined)
logP: 1.27

Cc1c(N(C)C)cc(Cc2cnc(N)nc2N)cc1N(C)C
logP: 2.06

CC(C)(C)c1cc(OC2OC(CO)C(O)C(O)C2O)cc(C(C)(C)C)c1 (centres undefined)
logP: 2.73

Nc1cnccn1
logP: -0.07

Clc1nc2c(Cl)c(Cl)c(Cl)c(Cl)c2[nH]1
logP: 4.53

CCOCCn1ccnc1[N+](=O)[O-]
logP: 0.53

NC(=S)c1ncccn1
logP: -0.34

CCCCCCNC(=O)CNC(=O)C=[N+]=[N-]
logP: 1.51

Cc1nonc1-c1ccccn1
logP: 2.09

CC(=O)N(C)SN(C)C(=O)Oc1cccc2c1OC(C)(C)C2
logP: 2.7

CN(C)N=Nc1cccc([N+](=O)[O-])c1
logP: 2.75

CNP(=O)(OC)Oc1ccc(Cl)cc1 (centres undefined)
logP: 1.85

Cc1cc(C(=O)O)no1
logP: 0.68

O=C(COc1ccccc1)N1CCCCC1
logP: 1.81

CC(=O)Nc1ccccc1C(C)=O
logP: 1.5

CCOC(=O)C(=Cc1ccccc1)C(=O)OCC
logP: 3.13

O=CN(Cc1ccccc1)c1ccccc1
logP: 2.62

CC12CC3CC(C1)CC(N)(C3)C2
logP: 3.01

CC1=C(C(=O)O)SCCO1
logP: 0.04

COC(=O)C1CCCC(NC(=O)N(CCCl)N=O)C1 (centres undefined)
logP: 1.89

CCOP(=O)(OCC)SCS(=O)CC (centres undefined)
logP: 1.78

CCc1c(OC)cc(Cc2cnc(N)nc2N)cc1OC
logP: 2.72

CN1C(=O)CN=C(c2ccccc2F)c2cc(I)ccc21
logP: 3.14

Nc1nc(N)nc(-c2ccc(Cl)cc2Br)n1
logP: 2.09

COC(=O)COc1c(OC)cc(Cc2cnc(N)nc2N)cc1OC
logP: 0.55

CC1=Nc2c(Br)cc(Cl)cc2S(=O)(=O)N1
logP: 1.65

COc1nc(C)cc(-n2[nH]c(C)cc2=O)n1
logP: 1.03

COc1ccccc1C(=O)N1CCN(C)CC1
logP: 0.29

COCC(O)Cn1c([N+](=O)[O-])cnc1C (centres undefined)
logP: 0.04

COc1cc(OC)c(OC)cc1Cc1cnc(N)nc1N
logP: 1.17

CC(C)CNCC(=O)NC(=O)C=[N+]=[N-]
logP: 0.37

Clc1ccccc1-c1ccccc1Cl
logP: 4.97

Oc1ccc(C(c2ccc(O)cc2)c2nccs2)cc1
logP: 2.96

CCN(C)c1nc(N(C)CC)nc(N(C)CC)n1
logP: 3.9

O=C(Cn1ccnc1[N+](=O)[O-])N(CO)CO
logP: -1.59

NC(=O)CCn1nnc2ccccc21
logP: 0.27

CN(C)Cc1cccs1
logP: 1.67

CN(C)C(=O)Oc1ccccc1Br
logP: 2.17

Nc1nc(=O)c2ccccc2[nH]1
logP: 0.6

CC(C)C1OC(=O)c2ccccc21 (centres undefined)
logP: 2.1

C=Cc1cnc([N+](=O)[O-])n1C
logP: 0.64

O=[N+]([O-])c1cccc(OC2OC(CO)C(O)C(O)C2O)c1 (centres undefined)
logP: -0.51

NNC(=O)c1ccc2ncccc2c1
logP: 0.35

Cn1ncc2c([N+](=O)[O-])cc([N+](=O)[O-])cc21
logP: 1.63

CN(C)C(=O)Cc1ccco1
logP: 0.01

CC(=O)NC1CC1c1ccccc1 (centres undefined)
logP: 1.43

CN(C)C(=O)CCC(=O)OCC(=O)C1(O)CCC2C3CCC4=CC(=O)CCC4(C)C3C(O)CC21C (centres undefined)
logP: 2.03

COc1cc(-n2[nH]c(C)cc2=O)nc(C)n1
logP: 0.72

O=C1C=C(Nc2ccccc2)C(=O)c2ccccc21
logP: 2.84

CNc1nc(N(C)C)nc(N(C)C)n1
logP: 1.83

COc1ccc(OC(=O)CNC(=O)c2ccccc2)cc1
logP: 2.28

CSC(C)=NOC(=O)N(C)SN(C)C(=O)C(C)C
logP: 2.2

O=S(=O)(Nc1cccc(Cl)c1)C(F)(F)F
logP: 4

CCOP(=S)(OCC)SCS(=O)(=O)C(C)(C)C
logP: 2.48

O=C1CN=C(c2ccc(Br)cc2)c2cc(Br)ccc2N1
logP: 4.04

CN(C)Cc1ccco1
logP: 1.19

CCC(C)N(C)/N=N/c1nc[nH]c1C(N)=O (centres undefined)
logP: 1.08

CCCCCCCC(=O)NN
logP: 1

Nc1nc(N)nc(-c2cc(Br)ccc2Br)n1
logP: 2.09

NNC(=O)NN=Cc1ccccc1
logP: 0.81

CC1CNC(=Nc2ncc([N+](=O)[O-])s2)N1C (centres undefined)
logP: 2.02

S=C=Nc1ccc(N=Nc2ccccc2)cc1
logP: 5.55

COc1cc(Cc2cnc(N)nc2N)cc(OC)c1OCc1ccccc1
logP: 2.46

CCOC(=O)C(C#N)=NNc1ccc([N+](=O)[O-])cc1[N+](=O)[O-]
logP: 4.14

Cc1cccc(N=NN(C)C)c1
logP: 2.85

OCC1OC(Oc2ccc(I)cc2)C(O)C(O)C1O (centres undefined)
logP: 0.75

COc1cc(-n2nc(C)cc2OC)nc(C)n1
logP: 1.54

CCCCN(C)CCS(=O)(=O)c1cc(OC)c(OC)c(OC)c1
logP: 2.05

COP(=O)(NCC(C)C)Oc1cc(Cl)c(Cl)cc1Cl (centres undefined)
logP: 3.86

CCOC(=O)c1cnc2cccc(C)n2c1=O
logP: 0.96

Cn1c(=O)nc(-c2ccccc2)c2ccccc21
logP: 1.79

Nc1ccccc1C(c1ccc(O)cc1)c1ccc(O)cc1
logP: 3.16

NC1CC2CCC1c1ccccc12 (centres undefined)
logP: 2.29

Cc1nnc(-c2ccccn2)o1
logP: 0.46

CCc1cccc(OC2OC(CO)C(O)C(O)C2O)c1 (centres undefined)
logP: 0.31

O=S1(=O)N=C(Cc2ccccc2)Nc2ccccc21
logP: 1.89

CCCCCOn1c(=O)[nH]c(C)c(Br)c1=O
logP: 1.69

CCCNP(=O)(OC)SC (centres undefined)
logP: 0.65

NC(=O)NC1OC(=O)c2ccccc21 (centres undefined)
logP: 0.49

O=C(O)COc1ccc(N=Nc2ccccc2)cc1
logP: 2.99

CN(Cc1ccccc1)N=Nc1ccc(C#N)cc1
logP: 3.82

CCOc1ccc2nc(S(=O)(=O)NC)sc2c1
logP: 2.59

Nc1cccc(O[Si]23OCCN(CCO2)CCO3)c1
logP: -1.15

CCCCSc1ccccc1OC(=O)NC
logP: 2.98

CC(C)c1nnc(N)o1
logP: 0.2

CC(=O)NCCn1c([N+](=O)[O-])cnc1C
logP: -0.47

CC1=Nc2c(Cl)cccc2S(=O)(=O)N1
logP: 0.72

CN1CCN(C)C1=Nc1ncc([N+](=O)[O-])s1
logP: 0.95

COc1ccccc1N1C(=O)CCC1=O
logP: -0.02

CCOC(=O)N(C)SN(C)C(=O)ON=C(C)SC
logP: 1.9

Nc1nc(N)nc(-c2cc(Br)ccc2F)n1
logP: 1.94

Nc1nc(N)nc(-c2cc(Cl)ccc2F)n1
logP: 1.81

CC(=O)Nc1cc(C)c(O)c(C)c1C
logP: 0.82

CNP(=O)(OC)Oc1cccc(C(C)(C)C)c1 (centres undefined)
logP: 2.65

O=C(O)c1ccccc1NCCO
logP: 1.35

COc1cc(Cl)c(NC2=NCCN2)c(Cl)c1
logP: 1.6

Cc1ncc([N+](=O)[O-])n1CCCS(C)(=O)=O
logP: -1

CC1C2CCC3C(O)C2(CC(O)C2(O)C1CC(O)C2(C)C)CC3(C)O (centres undefined)
logP: 1.51

CC(=O)C(=Cc1ccc(F)cc1)C(C)=O
logP: 1.65

CCCC(=O)Nc1ccc(C)cc1O
logP: 2.26

NS(=O)(=O)c1cccc(OC(=O)CNC(=O)c2ccccc2)c1
logP: 0.84

CSc1ccc(NS(=O)(=O)C(F)(F)F)cc1
logP: 3.74

CN(C)S(=O)(=O)c1ccccc1
logP: 1.35

O=[N+]([O-])c1cnc(N=C2NCCN2)s1
logP: 1.38

CN(C)C(=O)c1ccoc1
logP: 0.24

COc1ccc(OC)c(NC2=NCCN2)c1
logP: 0.97

OCCCn1nnc2ccccc21
logP: 0.91

COC(=O)C(C#N)=NNc1cc(Cl)c(Cl)c(Cl)c1
logP: 5.22

COCN1C(=O)CN=C(c2ccccc2F)c2cc(N)ccc21
logP: 1.31

CCCc1nnc(N)o1
logP: 0.23

O=[N+]([O-])c1ccc(OCCn2ccnc2)cc1
logP: 1.69

CC1=Nc2ccc(F)cc2S(=O)(=O)N1
logP: 0.62

COc1cc(Cc2cnc(N)nc2N)cc(OC)c1C(N)=O
logP: -0.85

COc1c(C)cc(Cc2cnc(N)nc2N)cc1C
logP: 2.19

CC1=C(C(N)=O)SCCO1
logP: -0.22

CCN(CC)C(=O)NN
logP: -0.62

CCN1C(=O)CN=C(c2ccccc2)c2cc(Cl)ccc21
logP: 3.21
